Assay results taken from ChEMBL document CHEMBL5316318, “Structural Modification and Pharmacological Evaluation of Substituted Quinoline-5,8-diones as Potent NSD2 Inhibitors” (J Med Chem, 2023).

Tests used:
[1] = molecular target: T1, Histone-lysine N-methyltransferase NSD2 (Homo sapiens, UniProt O96028); experiment: Inhibition of recombinant human NSD2 (941 to 1240 residues) using SAM as substrate incubated for 3 hrs by AlphaLISA assay
T1 sequence (O96028 whole entry): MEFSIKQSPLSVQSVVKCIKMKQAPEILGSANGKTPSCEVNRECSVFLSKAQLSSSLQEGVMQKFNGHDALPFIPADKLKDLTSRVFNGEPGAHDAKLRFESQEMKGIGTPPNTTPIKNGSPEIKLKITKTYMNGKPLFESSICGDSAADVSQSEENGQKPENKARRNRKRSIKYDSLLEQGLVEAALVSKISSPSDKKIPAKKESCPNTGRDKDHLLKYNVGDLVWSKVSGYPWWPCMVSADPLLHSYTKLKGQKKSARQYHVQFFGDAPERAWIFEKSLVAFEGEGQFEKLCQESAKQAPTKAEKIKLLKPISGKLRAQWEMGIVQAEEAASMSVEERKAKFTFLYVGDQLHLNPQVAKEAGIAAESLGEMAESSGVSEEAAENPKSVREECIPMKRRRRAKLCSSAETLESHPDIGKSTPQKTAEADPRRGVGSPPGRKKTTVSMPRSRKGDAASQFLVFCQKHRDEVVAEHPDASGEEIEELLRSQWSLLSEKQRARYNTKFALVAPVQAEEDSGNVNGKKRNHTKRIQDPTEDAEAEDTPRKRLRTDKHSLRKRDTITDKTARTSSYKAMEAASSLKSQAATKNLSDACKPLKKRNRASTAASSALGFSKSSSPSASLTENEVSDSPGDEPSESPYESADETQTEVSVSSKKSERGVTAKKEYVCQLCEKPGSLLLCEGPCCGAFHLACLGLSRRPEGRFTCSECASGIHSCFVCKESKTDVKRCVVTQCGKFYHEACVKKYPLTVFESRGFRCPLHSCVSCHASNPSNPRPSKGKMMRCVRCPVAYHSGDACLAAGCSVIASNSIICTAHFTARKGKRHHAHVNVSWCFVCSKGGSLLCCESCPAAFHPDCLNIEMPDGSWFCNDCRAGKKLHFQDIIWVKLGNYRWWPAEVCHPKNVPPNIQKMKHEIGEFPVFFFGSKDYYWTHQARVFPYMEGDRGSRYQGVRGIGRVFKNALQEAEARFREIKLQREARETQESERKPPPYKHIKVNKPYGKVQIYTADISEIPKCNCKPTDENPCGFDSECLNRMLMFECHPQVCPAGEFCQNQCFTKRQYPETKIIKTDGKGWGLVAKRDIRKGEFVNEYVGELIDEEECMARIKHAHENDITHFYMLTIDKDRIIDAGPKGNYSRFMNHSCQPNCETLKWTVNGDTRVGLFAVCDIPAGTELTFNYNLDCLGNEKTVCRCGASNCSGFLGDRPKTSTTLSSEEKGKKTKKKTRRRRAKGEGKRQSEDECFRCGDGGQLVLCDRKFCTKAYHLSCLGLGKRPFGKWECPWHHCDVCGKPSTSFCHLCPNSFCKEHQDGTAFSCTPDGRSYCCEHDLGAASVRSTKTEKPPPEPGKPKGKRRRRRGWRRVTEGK

KMS-11 = experiment: Antiproliferative activity against human KMS-11 cells assessed as inhibition of cell growth incubated for 6 days by CCK-8 assay; assay type: functional, cell-based; settings: KMS-11, 144 h
[2] = molecular target: Histone-lysine N-methyltransferase EZH2 (Homo sapiens, UniProt Q15910); experiment: Inhibition of EZH2 (unknown origin) using SAM as substrate preincubated for 10 mins followed by substrate addition and measured after 4 hrs by HTRF analysis
Histone-lysine N-methyltransferase EZH2, sequence (Q15910 whole entry): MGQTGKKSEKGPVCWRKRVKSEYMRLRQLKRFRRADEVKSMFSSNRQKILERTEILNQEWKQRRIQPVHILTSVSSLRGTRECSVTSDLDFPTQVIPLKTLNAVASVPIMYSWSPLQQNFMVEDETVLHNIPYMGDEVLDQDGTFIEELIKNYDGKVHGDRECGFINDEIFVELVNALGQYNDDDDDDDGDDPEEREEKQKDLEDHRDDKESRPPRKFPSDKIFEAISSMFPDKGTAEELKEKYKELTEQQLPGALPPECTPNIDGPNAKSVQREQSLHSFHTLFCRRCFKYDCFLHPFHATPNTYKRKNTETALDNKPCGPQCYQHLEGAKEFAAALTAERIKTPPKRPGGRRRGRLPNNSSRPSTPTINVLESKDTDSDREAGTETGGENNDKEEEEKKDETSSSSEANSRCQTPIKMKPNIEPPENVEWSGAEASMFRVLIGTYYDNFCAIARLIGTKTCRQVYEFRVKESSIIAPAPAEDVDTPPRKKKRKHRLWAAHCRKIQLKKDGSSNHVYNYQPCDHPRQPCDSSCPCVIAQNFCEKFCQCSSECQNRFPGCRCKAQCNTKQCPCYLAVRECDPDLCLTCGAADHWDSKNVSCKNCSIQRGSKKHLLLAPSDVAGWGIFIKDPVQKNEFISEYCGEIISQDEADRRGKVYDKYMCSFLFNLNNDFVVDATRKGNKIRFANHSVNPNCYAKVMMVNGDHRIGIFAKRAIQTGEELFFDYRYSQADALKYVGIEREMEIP

[3] = Apparent permeability coefficient, Papp in MDCK cells; assay type: ADME, cell-based, Canis lupus familiaris; settings: dog
[4] = molecular target: T1, Histone-lysine N-methyltransferase NSD2; experiment: Inhibition of human NSD2 (934 to 1241 residues) expressed in Escherichia coli BL21 (DE3) using [3H]-SAM as substrate incubated for 1 hr by TopCount radioactivity counter
[5] = AUClast in ICR mouse at 3 mg/kg, po measured for 24 hrs by LC-MS/MS analysis; assay type: ADME, organism-based; parameters: dose 3 mg/kg, time 24 hrs, route po; settings: in vivo
[6] = Observed clearance in ICR mouse at 1 mg/kg, iv measured for 24 hrs by LC-MS/MS analysis; assay type: ADME, organism-based; settings: in vivo
[7] = Oral bioavailability in ICR mouse at 3 mg/kg measured for 24 hrs by LC-MS/MS analysis; assay type: ADME, organism-based; settings: in vivo
[8] = AUClast in ICR mouse at 1 mg/kg, iv measured for 24 hrs by LC-MS/MS analysis; assay type: ADME, organism-based; parameters: dose 1 mg/kg, time 24 hrs, route iv; settings: in vivo
[9] = Half life in ICR mouse at 3 mg/kg, po measured for 24 hrs by LC-MS/MS analysis; assay type: ADME, organism-based; settings: in vivo
[10] = Cmax in ICR mouse at 3 mg/kg, po measured for 24 hrs by LC-MS/MS analysis; assay type: ADME, organism-based; parameters: dose 3 mg/kg, time 24 hrs, route po; settings: in vivo
[11] = Tmax in ICR mouse at 3 mg/kg, po measured for 24 hrs by LC-MS/MS analysis; assay type: ADME, organism-based; settings: in vivo
[12] = Half life in ICR mouse at 1 mg/kg, iv measured for 24 hrs by LC-MS/MS analysis; assay type: ADME, organism-based; settings: in vivo

IC50 [1]	Compound	further results
1290 nM	C[C@@](O)(C(=O)NC12CC(NC3=CC(=O)c4ncccc4C3=O)(C1)C2)C(F)(F)F	–
450 nM	O=C1C(NC2CCc3ccccc32)=C(Cl)C(=O)c2ncccc21 (stereo unspecified)	–
1310 nM	CC(C)(O)[C@H](F)CNC1=C(Cl)C(=O)c2ncccc2C1=O	–
360 nM	CC(F)(F)C(=O)NC1CN(C2=C(Cl)C(=O)c3ncccc3C2=O)C1	–
490 nM	O=C1C(NCCN2CCOCC2)=C(Cl)C(=O)c2ncccc21	–
760 nM	CC#CC(=O)N1CCC2(CC1)CN(C1=C(Cl)C(=O)c3cccnc3C1=O)C2	–
250 nM	CC#CC(=O)NC12CC(NC3=C(Cl)C(=O)c4cccnc4C3=O)(C1)C2	IC50 (KMS-11): 2210 nM; IC50 [2]: 1040 nM; Papp [3]: 42 ×10⁻⁶ cm/s
–	Nc1ncnc2c1ncn2[C@@H]1O[C@H](C[C@@H](N)CC[C@H](N)C(=O)O)[C@@H](O)[C@H]1O [SINEFUNGIN]	IC50 [4]: 79000 nM
360 nM	CC(C)(O)[C@H](F)CNC1=C(Cl)C(=O)c2ccc(N3CCCC3)nc2C1=O	–
330 nM	CC(F)(F)C(=O)N1CCC2(CC1)CN(C1=C(Cl)C(=O)c3cccnc3C1=O)C2	–
310 nM	CC#CC(=O)NC1CN(C2=C(Cl)C(=O)c3cccnc3C2=O)C1	–
1710 nM	CC#CC(=O)NCCC1CCN(C2=C(Cl)C(=O)c3cccnc3C2=O)CC1	–
330 nM	CC(F)(F)C(=O)NC12CC(NC3=C(Cl)C(=O)c4ncccc4C3=O)(C1)C2	AUC(0-t) at 24 h [5]: 758 ng·h/mL; clearance [6]: 33.4 mL/min/kg; bioavailability [7]: 53.1%; AUC(0-t) at 24 h [8]: 476 ng·h/mL; IC50 (KMS-11): 350 nM; Papp [3]: 49.4 ×10⁻⁶ cm/s; half-life [9]: 5.12 h; Cmax [10]: 707 ng/mL; Tmax [11]: 0.42 h; half-life [12]: 1.92 h
> 10000 nM	CC(C)(O)[C@H](F)CNC1=C(Cl)C(=O)c2ccc(N3CC(O)C3)nc2C1=O	–
210 nM	O=C1C(Cl)=C(NC2CCc3ccccc32)C(=O)c2ncccc21 (stereo unspecified)	IC50 (KMS-11): 2520 nM; Papp [3]: 28.8 ×10⁻⁶ cm/s
200 nM	O=C1C(Cl)=C(NCCC2(O)CCN(C(=O)C3CC3(F)F)CC2)C(=O)c2ncccc21 (stereo unspecified)	IC50 (KMS-11): 3940 nM; Papp [3]: 21.5 ×10⁻⁶ cm/s
3050 nM	CC(F)(F)C(=O)N1CCC2(CC1)CN(C1=C(Cl)C(=O)c3ncccc3C1=O)C2	–
2290 nM	O=C1C(NCCc2c[nH]c3ccccc23)=C(Cl)C(=O)c2ncccc21	–
420 nM	C[C@@](O)(C(=O)NC12CC(NC3=C(Cl)C(=O)c4cccnc4C3=O)(C1)C2)C(F)(F)F	–
990 nM	C[C@@](O)(C(=O)N1CCC(O)(CCNC2=C(Cl)C(=O)c3ncccc3C2=O)CC1)C(F)(F)F	–
300 nM	CC(C)(O)[C@H](F)CNC1=C(Cl)C(=O)c2cccnc2C1=O	IC50 (KMS-11): 1680 nM; Papp [3]: 30.8 ×10⁻⁶ cm/s
410 nM	O=C1C(Cl)=C(NC23CC(NC(=O)C4CC4(F)F)(C2)C3)C(=O)c2ncccc21 (stereo unspecified)	–
